Earlier results on one substance are cited in patent EP1649859A1, “Pharmaceutical compositions comprising at least one poorly diffusible anticancer drug and a olidodeoxynucleotide immunestimulant” (Institut Gustave Roussy, priority 2004, dated 2006).

For the series the following is noted: bléomycine seule à des doses sub-thérapeutiques.

In the case of bléomycine, the activité antitumorale propre result is given as “ne possèdent pas d'activité antitumorale propre”.
